≈ marks a conversion by molar mass, not a printed value. Where two headings read alike, the source gives them in different places.

Data set [1] deals with Mycobacterium tuberculosis H37Rv. The data set can be described thus: Resazurin Microplate Assay (REMA), anti-tubercular activity, H37Rv strain. Particulars: 192 h, read-out: Anti-tubercular activity against Mycobacterium tuberculosis, H37Rv (minimum inhibitory concentration, MIC). Type of data set: cell-based.
Where [2] appears, read: H37Rv strain, ATCC: 25177, REMA, 8 days incubation at 37° C.

For the compound `CN1/C(=C\c2ccc([N+](=O)[O-])cc2)C(=O)N/C1=N\C(=O)Nc1ccccc1F`, the melting point (commonly the temperature, or range, at which the solid turns liquid) fell in the range of 150 to 152 °C.

`Cc1ccc(/C=C2/C(=O)N/C(=N\C(=O)Nc3ccccc3F)N2C)o1` yielded a melting point of 196 to 198 °C.

`CN1/C(=C\c2ccc([N+](=O)[O-])cc2)C(=O)N/C1=N\C(=O)Nc1cccc(F)c1` registered a melting point of 144 to 146 °C.

Compound `Cc1ccc(/C=C2/C(=O)N/C(=N\C(=O)Nc3cccc(F)c3)N2C)o1` registered a melting point of 188 to 190 °C.

In the case of `CN1/C(=C\c2ccc([N+](=O)[O-])cc2)C(=O)N/C1=N\C(=O)Nc1ccc(F)cc1`, the melting point is 156 to 158 °C.

As for `Cc1ccc(/C=C2/C(=O)N/C(=N\C(=O)Nc3ccc(F)cc3)N2C)o1`, the melting point is 186 to 188 °C.

The compound `CN1/C(=C\c2ccc(Br)o2)C(=O)N/C1=N\C(=O)Nc1ccc(Cl)cc1Cl` came in with a melting point of 198 to 200 °C.

Turning to `CN1/C(=C\c2ccc(-c3ccccc3[N+](=O)[O-])o2)C(=O)N/C1=N\C(=O)Nc1ccc(Cl)cc1Cl`, the melting point lay within 206 to 208 °C.

Regarding `Cc1ccc(/C=C2/C(=O)N/C(=N\C(=S)Nc3cccc(Cl)c3)N2C)o1`, the melting point lay in the range of 158 to 160 °C.

`CN1/C(=C\c2ccc(Br)o2)C(=O)N/C1=N\C(=S)Nc1cccc(Cl)c1` came in with a melting point of 140 to 142 °C.

`Cc1ccc(/C=C2/C(=O)N/C(=N\C(=S)Nc3ccc(F)cc3)N2C)o1`: the melting point is 146 to 148 °C.

For the compound `CN1C(=Cc2ccc([N+](=O)[O-])cc2)C(=O)N/C1=N\C(=S)Nc1cccc(Cl)c1` (stereo in doubt) [Compound 4q, 1-(3-Chlorophenyl)-3-[(2E,5Z)-1-methyl-5-(4-nitrobenzylidene)-4-oxoimidazolidin-2-ylidene]thiourea], the melting point was in the range of 166 to 168 °C. Further, the MIC in data set [1] (setting [2]) was found to be 8 µg/mL (≈ 19.2 µM).

Compound `CN1C(=Cc2ccc(-c3ccccc3[N+](=O)[O-])o2)C(=O)N/C1=N\C(=S)Nc1ccc(F)cc1` (stereo in doubt) [Compound 4v, 1-(4-Fluorophenyl)-3-[(2E,5Z)-1-methyl-5-{[5-(2-nitrophenyl)furan-2-yl]methylidene}-4-oxoimidazolidin-2-ylidene]thiourea] gave a melting point of 158 to 160 °C. Further, the MIC in data set [1] (setting [2]) amounted to 16 µg/mL (≈ 34.4 µM).

Compound `CN1/C(=C\c2ccc(Br)o2)C(=O)N/C1=N\C(=O)Nc1cccc(F)c1` [Compound 4g, 1-{(2E,5Z)-5-[(5-Bromofuran-2-yl)methylidene]-1-methyl-4-oxoimidazolidin-2-ylidene}-3-(3-fluorophenyl)urea] gave a melting point of 196 to 198 °C. Further, the MIC in data set [1] (H37RV) is 8 µg/mL (≈ 19.6 µM).

The record behind these values is patent publication US11981643B1, “Oxoimidazolidine derivatives as anti-tubercular agents” (priority 2023, dated 2024).
